Data set [1] deals with TRPC3/6 channels of rat pulmonary arterial smooth muscle cells (PASMC). The arrangement: method as in PMID 29522264. The settings on record: cited from earlier work.
The nature of data set [2]: NADPH-dependent microsomal conversion, Michaelis-Menten kinetics (MLM). Format: in vitro ADME, mouse. The conditions noted are these: MLM 0.5 mg/mL protein, SH045 0.5 to 100 µM, Lineweaver-Burk. The procedure:
For determination of vmax and Michaelis-Menten constant Km of the NADPH-dependent microsomal depletion of SH045, incubations in MLM and HLM were performed. Testosterone instead of SH045 was used as positive control (Supplementary Materials SM6).
Negative controls were obtained by omission of respective components. The overall velocity (v) of degradation was calculated from altered SH045 concentration (∆c) obtained from reduction peak area ratio of SH045 as: v = ∆c/incubation time × concentration of enzyme (nmol/min × mg). Mean maximum rate vmax and Km were calculated using Lineweaver-Burk transformation. […]
The tissue binding of SH045 was analyzed exemplarily in lung, liver and kidney homogenate using ultrafiltration [5]. […] 20 µL of the mixture and the filtrate were analyzed for SH045. […]
Testosterone (10 µM in ACN/DPBS 2/3, v/v) instead of SH045 was used as positive control and analyzed by an appropriate HPLC method with UV detection.
Negative controls contained either no NADPH, no MLM or HLM or none of them. The overall velocity (v) of degradation was calculated from altered SH045 concentration (∆c) obtained from reduction peak area ratio of SH045 as: v = ∆c / incubation time × concentration of enzyme × volume (nmol/ min × mg). Mean maximum rate vmax and Michaelis-Menten constant Km were calculated using Lineweaver-Burk transformation. […]

The structures appear in SMILES notation.

In the case of `C=C[C@@](C)(O)CC[C@H]1C(=C)C[C@H](OC(=O)NC)[C@H]2C(C)(C)CCC[C@]12C` [SH045, (1S,4S,4aR,8aS)-4-((S)-3-Hydroxy-3-methylpent-4-en-1-yl)-4a,8,8-trimethyl-3-methylenedecahydronaphthalen-1-yl methylcarbamate], the “OAG-induced Ca^2+ entry” value in data set [1] is “inhibition”. The vmax in data set [2] was 9.8 ± 0.8 nmol/min/mg. Moreover, in data set [2] (mouse, mouse liver microsomes), the Michaelis constant (Km) – broadly, the substrate concentration at which the rate is half of its maximum – at 10 min turned out to be 48.4 ± 3.9 µM.

These data come from PMC8998618, “A Pharmacokinetic and Metabolism Study of the TRPC6 Inhibitor SH045 in Mice by LC-MS/MS” (International Journal of Molecular Sciences, 2022).
